We go through 13 molecules from patent EP0195147A1, “Trihalo(amine)gold(III) complexes” (ENGELHARD CORPORATION, priority 1985, dated 1986).

Molecules are shown by their SMILES. Several values for one entry are separate records, joined by “and”; a condition that tells them apart may be missing. Identical values can stand only once.

The subject of data set [1] is S 180 ascites. The data set can be described thus: Anti-tumor screening against S 180 ascites (% increase in life span). As to conditions: for Survivors: survivors on day of evaluation (twice the mean life span of the control). Format: in vivo, female CFW Swiss mice. The method, then: The above prepared compounds were evaluated against §180 ascites in female CFW Swiss mice. The mice were weighed (average weight: 20 g), placed into cages (six mice to a cage) and on day zero the mice were inoculated with 0.2 ml of a freshly prepared saline suspension (0.15 M NaCl) containing 1 x 10^7 tumor cells/ml or a total of 2 x 10^6 cells. This inoculum was freshly prepared using "transfer" mice which had been injected with tumor cells the previous week; it was obtained via the following steps: (1) the removal of cells from the peritoneal cavity of the sacrificed transfer mouse, (2) alternate centrifugation and washing operations (2-3 times with cold saline) to remove blood and other components, and (3) dilution of the volume of the packed cell with saline (1:3). A final centrifugation was carried out at 1000 RPM over a two minute period. A cell count was made on a 2,000-fold dilution of this 1:3 suspension by means of a Coulter Counter. A final dilution to […] cells/ml was made based on the average count.
On day 1, solutions of the test compounds were prepared and each mouse in a set of six were injected with the same test compound at the same dosage. The doses were based on the average weight of the animals (cage weight). Also, beginning on day 1 two controls were employed containing six mice per control; • (1) Normal Control: This consisted solely of the carrier or diluent used in combination with the test compound; and • (2) Positive Control: This consisted solely of the known anti-tumor agent cis-[Pt(NH3)2C12] (Cisplatin) in saline (8 mg/kg) to test the response of the
The effectiveness of a test compound was measured in terms of the % increase in life span (%ILS) of the test mice relative to the Normal Control (Calculated from the day of tumor inoculation, ie., day zero). To standardize the test data and permit intercomparisons, the day of evaluation was arbitrarily taken as that day corresponding to twice the mean life span (or average day of death) of the control. This established a practical upper limit of 100% on the %ILS attainable. For calculation purposes the survivors on the day of evaluation were considered to have died on that day. The %ILS was calculated as follows: [formula] ILS values in excess of 50% were interpreted as being indicative of anti-tumor activity, whereas, values in excess of 75% indicated excellent activity.
The products of Examples 1, 4, 10 and 11 were administered in a freshly prepared 1% sodium bicarbonate solution; the remaining test compounds were administered as slurries in 0.5% "Klucel" (hydroxypropylcellulose). All products (I) are insoluble in water.

A short description of data set [2]: Therapeutic indices, ED90 and LD50 by the method of Miller and Tainter. Set-up: species or system Swiss white mice. Conditions: mouse, in vivo; for selectivity ratio: LD50/ED90, read-out: Therapeutic Index; for LD50: lethal dose to 50% of the animals. As to the method: The therapeutic indices for the present compounds (I), their effective dose (ED90) and lethal dose (LD50) were determined according to the method of Miller and Tainter (Reported by R. A. Turner, "Screening Methods in Pharmacology", Academic Press, New York, pages 61-62 (1976)).

Data set [3] can be described thus: Solubility. Format: physicochemical. As to conditions: 1% sodium bicarbonate solution; read-out: soluble in 1% sodium bicarbonate solution to the extent of.
The subject of data set [4] is implanted Sarcoma 180 tumors. Conditions: value attributed to commercially available Cisplatin; cited from earlier work.

With `Oc1ccc[n+]([Au-]([Cl])([Cl])[Cl])c1` [Ex. 5], the Survivors is on record as 0 of 6 in data set [1] (Dose 10 mg/kg); 2 of 6 in data set [1] (Dose 20 mg/kg); 3 of 6 in data set [1] (Dose 40 mg/kg); 2 of 6 in data set [1] (Dose 80 mg/kg); 0 of 6 in data set [1] (Dose 160 mg/kg); 0 of 6 in data set [1] (Dose 320 mg/kg).
As usually defined, the LD50 is the dose at which mortality reaches 50%. A lower LD50 goes with greater toxicity. As to `OCc1ccc[n+]([Au-]([Cl])([Cl])[Cl])c1` [Ex. 6], the Survivors in data set [1] (Dose 10 mg/kg) is reported as 0 of 6; in data set [1] (Dose 20 mg/kg), 1 of 6; in data set [1] (Dose 40 mg/kg) it was 3 of 6; in data set [1] (Dose 80 mg/kg), 0 of 6; in data set [1] (Dose 160 mg/kg), 0 of 6; in data set [1] (Dose 320 mg/kg), 0 of 6. The selectivity ratio in data set [2] was 2.1. In data set [2], this molecule yielded an LD50 of 90 mg/kg.
In the case of `O=C(O)Cc1ccc[n+]([Au-]([Br])([Br])[Br])c1` [Ex. 11, tribromo(3-pyridylacetic acid)gold(III)], the Survivors is reported as 0 of 6 in data set [1] (Dose 10 mg/kg); 0 of 6 in data set [1] (Dose 20 mg/kg); 0 of 6 in data set [1] (Dose 40 mg/kg); 1 of 6 in data set [1] (Dose 80 mg/kg); 0 of 6 in data set [1] (Dose 160 mg/kg); 0 of 6 in data set [1] (Dose 320 mg/kg). The solubility in data set [3] was determined as 12.8 mg/mL.
On to `Cn1cc[n+]([Au-]([Br])([Br])[Br])c1` [Ex. 9, Tribromo(N-Methylimidazole)Gold(III)], for which the Survivors in data set [1] (Dose 10 mg/kg) was 0 of 6; in data set [1] (Dose 20 mg/kg) it was 4 of 6; in data set [1] (Dose 40 mg/kg), 3 of 6; in data set [1] (Dose 80 mg/kg), 1 of 6; in data set [1] (Dose 160 mg/kg) it was 0 of 6; in data set [1] (Dose 320 mg/kg) it was 0 of 6. In data set [2], the selectivity ratio came to 2. In data set [2], the LD50 stood at 85 mg/kg.
Regarding `O=C(O)c1ccc[n+]([Au-]([Cl])([Cl])[Cl])c1` [Ex. 1, Trichloro(Nicotinic Acid)Gold(III)], the Survivors in data set [1] (Dose 10 mg/kg) was 0 of 6; in data set [1] (Dose 20 mg/kg) it was 3 of 6; in data set [1] (Dose 40 mg/kg), 3 of 6; in data set [1] (Dose 80 mg/kg), 4 of 6; in data set [1] (Dose 160 mg/kg), 0 of 6; in data set [1] (Dose 320 mg/kg) it was 0 of 6. Besides, in data set [2], the selectivity ratio is 5.8. Moreover, in data set [2], the LD50 turned out to be 180 mg/kg. For the same molecule, the solubility in data set [3] turned out to be 12.8 mg/mL.
Take `CC(=O)c1ccc[n+]([Au-]([Cl])([Cl])[Cl])c1` [Ex. 3, trichloro(3-acetylpyridine)gold(III)]: the Survivors in data set [1] (Dose 10 mg/kg) is 0 of 6; in data set [1] (Dose 20 mg/kg), 1 of 6; in data set [1] (Dose 40 mg/kg), 5 of 6; in data set [1] (Dose 80 mg/kg) it was 4 of 6; in data set [1] (Dose 160 mg/kg), 0 of 6; in data set [1] (Dose 320 mg/kg), 0 of 6. For the same molecule, in data set [2], the selectivity ratio is 4.5. Besides, the LD50 in data set [2] came to 140 mg/kg.
As to `O=C(O)c1ccc[n+]([Au-]([Br])([Br])[Br])c1` [Ex. 10], the Survivors in data set [1] (Dose 10 mg/kg) is recorded as 0 of 6; in data set [1] (Dose 20 mg/kg), 0 of 6; in data set [1] (Dose 40 mg/kg), 2 of 6; in data set [1] (Dose 80 mg/kg) it was 0 of 6; in data set [1] (Dose 160 mg/kg), 0 of 6; in data set [1] (Dose 320 mg/kg), 0 of 6. In data set [3], the solubility worked out at 12.8 mg/mL.
Consider `Cn1cc[n+]([Au-]([Cl])([Cl])[Cl])c1` [Ex. 2, Trichloro(N-Methylimidazole)Gold(III)], for which the Survivors is 0 of 6 in data set [1] (Dose 5 mg/kg); 0 of 6 in data set [1] (Dose 10 mg/kg); 1 of 6 in data set [1] (Dose 20 mg/kg); 4 of 6 in data set [1] (Dose 40 mg/kg); 1 of 6 in data set [1] (Dose 80 mg/kg); 0 of 6 in data set [1] (Dose 160 mg/kg). Moreover, the “anti-tumor activity (in words)” value in data set [1] (within the 20-40 mg/kg range) is “decidedly active”. In addition, the selectivity ratio in data set [2] stood at 2.8. Moreover, the LD50 in data set [2] was found to be 90 mg/kg.
As to `O=C(O)Cc1ccc[n+]([Au-]([Cl])([Cl])[Cl])c1` [Ex. 4, trichloro-(3-pyridyacetic acid)gold(III)], the Survivors in data set [1] (Dose 10 mg/kg) is 0 of 6; in data set [1] (Dose 20 mg/kg), 0 of 6; in data set [1] (Dose 40 mg/kg), 1 of 6; in data set [1] (Dose 80 mg/kg), 1 of 6; in data set [1] (Dose 160 mg/kg), 0 of 6; in data set [1] (Dose 320 mg/kg), 0 of 6. The selectivity ratio in data set [2] is 1.8. The LD50 in data set [2] came out at 150 mg/kg. For the same molecule, the solubility in data set [3] is 12.8 mg/mL.
Regarding `[Cl][Au-]([Cl])([Cl])[n+]1ccccc1` [Ex. 7, trichloro(pyridine)gold(III)], the Survivors in data set [1] (Dose 10 mg/kg) is reported as 3 of 6; in data set [1] (Dose 20 mg/kg), 2 of 6; in data set [1] (Dose 40 mg/kg), 3 of 6; in data set [1] (Dose 80 mg/kg) it was 2 of 6; in data set [1] (Dose 160 mg/kg), 0 of 6; in data set [1] (Dose 320 mg/kg), 0 of 6.
Turning to `[Cl][Au-]([Cl])([Cl])[n+]1cc[nH]c1` [Ex. 8, trichloro(imidazole)gold(III)], the Survivors in data set [1] (Dose 5 mg/kg) is on record as 0 of 6; in data set [1] (Dose 10 mg/kg), 0 of 6; in data set [1] (Dose 20 mg/kg), 1 of 6; in data set [1] (Dose 40 mg/kg), 0 of 6; in data set [1] (Dose 80 mg/kg), 1 of 6; in data set [1] (Dose 160 mg/kg), 2 of 6.
For `O=C(O)Cc1ccc[n+]([Au-]([Cl])([Cl])[Cl])c1` [trichloro-(3-pyridyacetic acid)gold(III)], the “anti-tumor activity (in words)” value in data set [1] (50% ILS criterion, all doses tested) was “pronounced anti-tumor effect”.
As to `N.N.[Cl][Pt][Cl]` [Cisplatin, cis-[Pt(NH3)2C12], reference compound], the “Positive Control Survivors” value in data set [1] (Cisplatin in saline, 8 mg/kg, run alongside the example of the same table line, listed as Positive Control) was 0 of 6 and 4 of 6 and 1 of 6 and 6 of 6. For the same molecule, the “Therapeutic Index” value in data set [4] is listed as 2.2-2.5.
